Data from patent US7708998B2, “Methods of inhibiting unwanted cell proliferation using hedgehog antagonists” (Curis, Inc., priority 2000, dated 2010).

Assays:
Format in all cases: cell-based
[1] = system: Shh-induced Gli-transcription; assay: Gli-Luc assay in 10T1/2(s12) cells activated with OCT-SHH; details: Gli-Luc response, OCT-SHH 0.3 μg/ml
Procedure: Compounds to be tested are dissolved in DMSO to a concentration of 10 mM, and stored at −20° C. To activate the Hedgehog pathway in the assay cells, an octylated (lipid-modified) form of the N-terminal fragment of the Sonic Hedgehog protein (OCT-SHH) is used. This N-terminal SHH fragment is produced bacterially.
Compounds may be tested in the “Gli-Luc” assay below, using the cell line 10T(s12), wherein the cells contain a Hedgehog-responsive reporter construct utilizing Luciferase as the reporter gene. In this way, Hedgehog pathway signaling activity can be measured via the Gli-Luc response.
10t1/2(s12) cells are plated in a 96-well micro-titer plate (MTP) at 20,000 cells/well in full medium [DMEM with 10% FBS]. Then plates are placed in the incubator for incubation overnight (O/N), at 37° C. and 5% CO2. After 24 h, the medium is replaced with Luciferase-assay medium (DMEM with 5% FBS). Compounds are thawed and diluted in assay medium at 3:1000 (about 300-fold) resulting in a starting concentration of about 30 μM.
Subsequently, 150 μl of each 30 μM sample is added to the first wells (in triplicate). The MTP samples are then diluted at 3-fold dilutions to a total of seven wells, ultimately resulting in a regiment of seven dilutions in triplicate, for each compound. Next, the protein ligand OCT-SHH is diluted in Luciferase-assay medium and added to each well at a final concentration of 0.3 μg/ml. Plates are then returned to the incubator for further incubation O/N, at 37° C. and 5% CO2. After about 24 h, plates are removed from the incubator and the medium is aspirated/discarded. Wells are washed once with assay buffer [PBS+1 mM Mg^2+ and 1 mM Ca^2+]. Then 50 μl of assay buffer is added to each well. The Luciferase assay reagent is prepared as described by the vendor (LucLite kit from Packard), and 50 μl is added to each well. Plates are incubated at room temperature (RT) for about 30 minutes after which the signals are read, again at RT, on a Topcount (Packard).

[2] = system: hedgehog signaling in embryonic mouse lungs; assay: embryonic mouse lung explants, Q-RT-PCR of gli-1 and Sp-C; details: E13.5 mouse lung explants, Q-RT-PCR normalized to GAPDH
Procedure: METHODS: E13.5 embryonic mouse lungs were dissected. Explants were grown exposed to the air-liquid interface in lung explant medium (DMEM based, additives optimized for the culture of mouse lungs) for 67 hrs. They were then processed for quantitative real-time PCR (Q-RT-PCR). Briefly, total ribonucleic acid (RNA) is isolated from the tissue and subjected to reverse transcription to generate DNA. This DNA is amplified in a polymerase chain reaction using gene-specific primers as well as primers for the ubiquitously expressed housekeeping gene GAPDH. The two primer sets are labeled with different fluorophores, allowing for quantification of both signals in the same reaction tube in a real-time PCR machine (TaqMan). When calculating the expression level of gli-1, the specific signal is normalized to the GAPDH signal, which serves as a measure of the total DNA used in the reaction.
METHODS: E13.5 old embryonic mouse lungs were dissected. Explants were grown submerged in lung explant medium (DMEM based, additives optimized for the culture of mouse lungs) for 50 hrs. They were then processed for Q-RT-PCR. Briefly, total ribonucleic acid (RNA) is isolated from the tissue and subjected to reverse transcription to generate DNA. […] The two primer sets are labeled with different fluorophores, allowing for quantification of both signals in the same reaction tube in a real-time PCR machine (TaqMan). […]

[3] = system: Shh signaling pathway in MEFs homozygous for ptc-lacZ; assay: β-galactosidase activity in ptc-lacZ mouse embryonic fibroblasts; details: MEFs homozygous for ptc-lacZ (cell line 23-1), normalized to whole protein content
Text: The Shh signaling pathway can be activated in these fibroblasts in cell culture, and that the level of β-galactosidase activity does reflect the degree of pathway activation.

IC50 [1] | SMILES | other results
< 0.1 µM | O=C(NCc1nc2ccccc2c(=O)n1-c1ccc(F)cc1)Nc1ccc(Cl)c(C(F)(F)F)c1 [Compound 5] | 
< 0.5 µM | O=C(NCc1nc2ccccc2c(=O)n1-c1ccc(F)cc1)Nc1cc(Cl)nc(Cl)c1 [Compound 6] | 
< 5 µM | CC(c1nc2ccccc2c(=O)n1-c1ccc(F)cc1)N(C)C(=O)Nc1cccc(C(F)(F)F)c1 (stereo not drawn) [Compound 11] | 
< 10 µM | CC(c1nc2ccccc2c(=O)n1-c1ccc(F)cc1)N(Cc1ccco1)C(=O)Nc1cccc(F)c1 (stereo not drawn) [Compound 31] | 
< 5 µM | CC(c1nc2ccccc2c(=O)n1-c1ccc(F)cc1)N(C)C(=O)Nc1ccc([N+](=O)[O-])c(C(F)(F)F)c1 (stereo not drawn) [Compound 32] | 
< 5 µM | CCCN(C(=O)Nc1cccc(Cl)c1)C(C)c1nc2ccccc2c(=O)n1-c1ccc(F)cc1 (stereo not drawn) [Compound 34] | 
< 5 µM | CCCN(C(=O)Nc1cccc(C(F)(F)F)c1)C(C)c1nc2ccccc2c(=O)n1-c1ccc(F)cc1 (stereo not drawn) [Compound 36] | 
< 5 µM | CCCN(C(=O)Nc1cccc(OC)c1)C(C)c1nc2ccccc2c(=O)n1-c1ccc(F)cc1 (stereo not drawn) [Compound 38] | 
< 5 µM | CCC(c1nc2ccccc2c(=O)n1-c1ccc(C)cc1)N(CCc1ccccc1)C(=O)CCCCF (stereo not drawn) [Compound 39] | 
< 10 µM | CCCCc1ccc(C(=O)N(Cc2ccccc2)C(CC)c2nc3ccccc3c(=O)n2-c2ccc(C)cc2)cc1 (stereo not drawn) [Compound 40] | 
< 10 µM | CCCCCCCCC(=O)N(CCCCC)C(C)c1nc2ccccc2c(=O)n1-c1ccccc1 (stereo not drawn) [Compound 41] | 
< 5 µM | CCC(=O)N1CCN(C(CC)c2nc3ccccc3c(=O)n2-c2ccc(C)cc2)C(C)C1 (stereo not drawn) [Compound 42] | 
< 10 µM | CC(c1nc2ccccc2c(=O)n1-c1ccc(F)cc1)N1CCN(C(=O)Nc2ccc(Cl)c(Cl)c2)CC1 (stereo not drawn) [Compound 43] | 
< 1 µM | O=C(NCc1nc2ccccc2c(=O)n1-c1ccc(F)cc1)Nc1cccc(C(F)(F)F)c1 [Compound 44] | 
< 5 µM | CCC(c1nc2ccccc2c(=O)[nH]1)N1CCN(C(=O)Nc2ccc(Cl)c(Cl)c2)C(C)C1 (stereo not drawn) [Compound 45] | 
< 0.5 µM | CCC(c1nc2ccccc2c(=O)[nH]1)N1CCN(C(=O)c2ccc(-c3ccccc3)cc2)C(C)C1 (stereo not drawn) [Compound 46] | 
< 5 µM | CCCN(CCC(=O)NC1CCCc2ccccc21)C(=O)c1cc(OC)cc(OC)c1 (stereo not drawn) [Compound 47] | 
< 0.5 µM | CCC(C)N(CCC(=O)NC1CCCc2ccccc21)C(=O)c1cccc2ccccc12 (stereo not drawn) [Compound 48] | 
< 1 µM | CCC(C)N(CCC(=O)NC1CCCc2ccccc21)C(=O)COc1ccc(Cl)cc1 (stereo not drawn) [Compound 49] | 
< 1 µM | O=C(Cc1cccc(C(F)(F)F)c1)NCCc1nc2ccccc2c(=O)n1-c1ccc(F)cc1 [Compound 50] | 
< 5 µM | CC(c1nc2ccccc2c(=O)n1-c1ccc(F)cc1)N(C)C(=O)Nc1cccc(C#N)c1 (stereo not drawn) [Compound 51] | 
< 1 µM | CC(c1nc2ccccc2c(=O)n1-c1ccc(F)cc1)N(C)C(=O)Nc1cccc(SC(F)(F)F)c1 (stereo not drawn) [Compound 52] | 

IC50 [1] | SMILES | other results
< 1 µM | CC(c1nc2ccccc2c(=O)n1-c1ccc(F)cc1)N(C)C(=O)Nc1ccc(Cl)c(Cl)c1 (stereo not drawn) [Compound 53] | 
< 5 µM | CC(c1nc2ccccc2c(=O)n1-c1ccc(F)cc1)N(C)C(=O)Nc1ccc(C(F)(F)F)cc1 (stereo not drawn) [Compound 54] | 
< 5 µM | CC(c1nc2ccccc2c(=O)n1-c1ccc(F)cc1)N(C)C(=O)Nc1cccc(F)c1 (stereo not drawn) [Compound 55] | 
< 10 µM | CC(c1nc2ccccc2c(=O)n1-c1ccc(F)cc1)N(C)C(=O)Nc1ccc(-c2ccccc2)cc1 (stereo not drawn) [Compound 56] | 
< 10 µM | CC(C)c1cccc(NC(=O)N(C)C(C)c2nc3ccccc3c(=O)n2-c2ccc(F)cc2)c1 (stereo not drawn) [Compound 57] | 
< 5 µM | CC(c1nc2ccccc2c(=O)n1-c1ccc(F)cc1)N(C)C(=O)Nc1cc(Cl)nc(Cl)c1 (stereo not drawn) [Compound 58] | 
< 5 µM | Cc1c(NC(=O)N(C)C(C)c2nc3ccccc3c(=O)n2-c2ccc(F)cc2)cccc1[N+](=O)[O-] (stereo not drawn) [Compound 59] | 
< 5 µM | CC(c1nc2ccccc2c(=O)n1-c1ccc(F)cc1)N(C)C(=O)Nc1ccc(SC(F)(F)F)cc1 (stereo not drawn) [Compound 60] | 
< 1 µM | CC(c1nc2ccccc2c(=O)n1-c1ccc(F)cc1)N(C)C(=O)Nc1ccc(Cl)c(C(F)(F)F)c1 (stereo not drawn) [Compound 61] | 
< 10 µM | CCOC(=O)c1ccccc1NC(=O)N(C)C(C)c1nc2ccccc2c(=O)n1-c1ccc(F)cc1 (stereo not drawn) [Compound 63] | 
< 10 µM | CC(c1nc2ccccc2c(=O)n1-c1ccc(F)cc1)N(C)C(=O)Nc1ccc([N+](=O)[O-])cc1Cl (stereo not drawn) [Compound 64] | 
< 10 µM | CC(c1nc2ccccc2c(=O)n1-c1ccc(F)cc1)N(C)C(=O)Nc1ccc(Cl)cc1[N+](=O)[O-] (stereo not drawn) [Compound 66] | 
< 5 µM | Cc1c(NC(=O)NCc2nc3ccccc3c(=O)n2-c2ccc(F)cc2)cccc1SC(F)(F)F [Compound 67] | 
< 1 µM | O=C(NCc1nc2ccccc2c(=O)n1-c1ccc(F)cc1)Nc1ccc(Cl)c(Cl)c1 [Compound 68] | 
< 0.5 µM | O=C(NCc1nc2ccccc2c(=O)n1-c1ccc(F)cc1)Nc1ccc(Cl)c([N+](=O)[O-])c1 [Compound 69] | 
< 10 µM | COc1cccc(NC(=O)NCc2nc3ccccc3c(=O)n2-c2ccc(F)cc2)c1C [Compound 71] | 
< 5 µM | CC(NC(=O)Nc1cccc(C(F)(F)F)c1)c1nc2ccccc2c(=O)n1-c1ccc(F)cc1 (stereo not drawn) [Compound 73] | 
< 5 µM | O=C(NCCCc1nc2ccccc2c(=O)n1-c1ccc(F)cc1)Nc1cccc(C(F)(F)F)c1 [Compound 74] | 
< 5 µM | O=C(Nc1cccc(C(F)(F)F)c1)NC(c1nc2ccccc2c(=O)n1-c1ccc(F)cc1)C1CC1 (stereo not drawn) [Compound 75] | 
 | C[C@]12CCC(=O)C=C1CC[C@@H]1[C@@H]2[C@@H](O)C[C@@]2(C)[C@H]1CC[C@]2(O)C(=O)CO [hydrocortisone] | surfactant type C (Sp-C) expression [2]: comparable
 | C[C@H]1CC[C@]2(NC1)O[C@H]1C[C@H]3[C@@H]4CC[C@H]5C[C@@H](O)CC[C@]5(C)[C@H]4CC[C@]3(C)[C@H]1[C@@H]2C [tomatidine] | β-galactosidase activity [3]: non-inhibitory

SMILES | IC50 [1] | other results
CC(c1nc2ccccc2c(=O)n1-c1ccc(F)cc1)N(C)C(=O)Nc1ccc([N+](=O)[O-])c(Cl)c1 (stereo not drawn) [Compound 62] | < 1 µM | 
CCOOC(=O)c1cccc(NC(=O)N(C)C(C)c2nc3ccccc3c(=O)n2-c2ccc(F)cc2)c1 (stereo not drawn) [Compound 65] | < 10 µM | 
